Assay results: USRE42890E1, “Furazanobenzimidazoles” (Basilea Pharmaceutica AG, priority 2003, dated 2011)

What was measured:
Jurkat = test: MTS proliferation assay, Jurkat; format: cell-based, human; conditions: 72 h incubation, read-out: MTS proliferation assay IC 50 Jurkat
Summary of the method: (§1)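 Absorbance at 492 nm after 3 h with MTS reagent gave the proliferation read-out. Before that, cells in RPMI-1640 complete medium (5% or 10% FCS) were treated 72 h with compound at four final concentrations, 0.3 to 10 μM.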

MRC5 = test: MTS proliferation assay, MRC5; format: cell-based; conditions: MRC5, 72 h incubation; read-out: MTS proliferation assay IC 50 MRC5
Summary of the method: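 Read-out: MTS absorbance at 492 nm after 3 h reagent incubation. Before that, cells grew 72 h at 37° C/7.5% CO2 with test compounds at final concentrations of 10 μM, 3 μM, 1 μM and 0.3 μM, added 24 h post-seeding.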

Jily = test: MTS proliferation assay, Jily; format: cell-based; conditions: 72 h incubation, read-out: MTS proliferation assay IC 50 Jily
Description: Cell lines are cultured in RPMI-1640 tissue culture medium containing either 5% or 10% fetal calf serum, 0.05 mM 2-mercaptoethanol, 2 mM glutamine and penicillin/streptomycin 50 μg/ml (complete medium) (Sigma, Buchs, Switzerland). General growth conditions are 37° C. and 7.5% CO2.
The assay is performed in 96 well tissue culture plates. The cells (range: 1.5*10^3-10^4) are seeded out in 80 μl complete medium 24 h prior to compound treatment. The test compounds are added in 20 μl complete medium containing max 5% DMSO. The final compound concentrations in the assays are 10 μM, 3 μM, 1 μM and 0.3 μM, respectively. The assay plates are incubated for 72 h at culture conditions. The MTS reagent is prepared according to the manufacturer's protocol (Promega G1111). 20 μl MTS reagent are added to each well, the assay plates are quickly spun and incubated for another 3 h at culture conditions. Subsequently, the plates are shortly shaked and absorption measured with a microplate-reader at 492 nm.

HT1080 = test: MTS proliferation assay, HT1080; format: cell-based, human; conditions: HT1080, 72 h incubation; read-out: MTS proliferation assay IC 50 HT1080
Summary of the method: as §1

[1] = tested on: adherent cells or suspension cells; test: Hoechst 33342 nuclear staining (fraction of apoptotic nuclei); format: cell-based; set-up: key: 0 relating to no activity; 1 relating to weak activity comprising less than 70% of the cells; score 2 relating to strong activity comprising more than 70% of the cells
HeLa = test: MTS proliferation assay, HeLa; format: cell-based, human; conditions: 72 h incubation, read-out: MTS proliferation assay IC 50 HeLa
Summary of the method: as §1

| IC50 (HT1080) [nM] | Structure (SMILES) | IC50 (MRC5) [nM] | IC50 (Jily) [nM] | Hoechst 33342 nuclear staining score ([1]; H460, conc 0.01 μm) | Hoechst 33342 nuclear staining score ([1]; H460, conc 0.1 μm) | Hoechst 33342 nuclear staining score ([1]; H460, conc 1 μm) | Hoechst 33342 nuclear staining score ([1]; HeLa, conc 0.01 μm) | Hoechst 33342 nuclear staining score ([1]; HeLa, conc 0.1 μm) | Hoechst 33342 nuclear staining score ([1]; HeLa, conc 1 μm) | Hoechst 33342 nuclear staining score ([1]; Jily, conc 0.01 μm) | Hoechst 33342 nuclear staining score ([1]; Jily, conc 0.1 μm) | Hoechst 33342 nuclear staining score ([1]; Jily, conc 1 μm) | Hoechst 33342 nuclear staining score ([1]; Jurkat, conc 0.01 μm) | Hoechst 33342 nuclear staining score ([1]; Jurkat, conc 0.1 μm) | Hoechst 33342 nuclear staining score ([1]; Jurkat, conc 1 μm) | Hoechst 33342 nuclear staining score ([1]; MRC5, conc 0.01 μm) | Hoechst 33342 nuclear staining score ([1]; MRC5, conc 0.1 μm) | Hoechst 33342 nuclear staining score ([1]; MRC5, conc 1 μm) | Hoechst 33342 nuclear staining score ([1]; PBLs, conc 0.01 μm) | Hoechst 33342 nuclear staining score ([1]; PBLs, conc 0.1 μm) | further results |
| --- | --- | --- | --- | --- | --- | --- | --- | --- | --- | --- | --- | --- | --- | --- | --- | --- | --- | --- | --- | --- | --- |
| 10 to 100 | N#CCCNc1nonc1-c1nc2ccccc2n1CC(=O)c1ccc(Br)cc1 [Example 47] | 100 to 1000 | < 10 | 0 | 2 (score 2 relating to strong activity comprising more than 70% of the cells) | 2 (score 2 relating to strong activity comprising more than 70% of the cells) | 0 | 2 (score 2 relating to strong activity comprising more than 70% of the cells) | 2 (score 2 relating to strong activity comprising more than 70% of the cells) | 0 | 2 (score 2 relating to strong activity comprising more than 70% of the cells) | 2 (score 2 relating to strong activity comprising more than 70% of the cells) | 2 (score 2 relating to strong activity comprising more than 70% of the cells) | 2 (score 2 relating to strong activity comprising more than 70% of the cells) | 2 (score 2 relating to strong activity comprising more than 70% of the cells) | 0 | 2 (score 2 relating to strong activity comprising more than 70% of the cells) | 2 (score 2 relating to strong activity comprising more than 70% of the cells) | 0 | 0 | IC50 (Jurkat): < 10 nM; Hoechst 33342 nuclear staining score ([1]; PBLs, conc 1 μm): 0; IC50 (HeLa): 10 to 100 nM |
| 10 to 100 | Cc1ccc(C(=O)Cn2c(-c3nonc3NCCC#N)nc3ccccc32)cc1C [Example 54] | 10 to 100 | 10 to 100 | 0 | 2 (score 2 relating to strong activity comprising more than 70% of the cells) | 2 (score 2 relating to strong activity comprising more than 70% of the cells) | 0 | 2 (score 2 relating to strong activity comprising more than 70% of the cells) | 2 (score 2 relating to strong activity comprising more than 70% of the cells) | 1 (1 relating to weak activity comprising less than 70% of the cells) | 2 (score 2 relating to strong activity comprising more than 70% of the cells) | 2 (score 2 relating to strong activity comprising more than 70% of the cells) | 1 (1 relating to weak activity comprising less than 70% of the cells) | 2 (score 2 relating to strong activity comprising more than 70% of the cells) | 2 (score 2 relating to strong activity comprising more than 70% of the cells) | 0 | 2 (score 2 relating to strong activity comprising more than 70% of the cells) | 2 (score 2 relating to strong activity comprising more than 70% of the cells) | 0 | 0 | Hoechst 33342 nuclear staining score ([1]; PBLs, conc 1 μm): 0; IC50 (HeLa): 10 to 100 nM |
| > 1000 | Nc1nonc1-c1nc2ccccc2n1CC(=O)c1cc(F)ccc1F [Example 71] | > 1000 | 100 to 1000 | 0 | 0 | 0 | 0 | 0 | 0 | 0 | 0 | 1 (1 relating to weak activity comprising less than 70% of the cells) | 0 | 0 | 2 (score 2 relating to strong activity comprising more than 70% of the cells) | 0 | 0 | 0 | 0 | 0 | Hoechst 33342 nuclear staining score ([1]; PBLs, conc 1 μm): 0; IC50 (HeLa): 100 to 1000 nM |
| 100 to 1000 | Nc1nonc1-c1nc2ccccc2n1COc1cccc(C(F)(F)F)c1 [Example 103] | 100 to 1000 | 10 to 100 | 0 | 0 | 2 (score 2 relating to strong activity comprising more than 70% of the cells) | 0 | 0 | 2 (score 2 relating to strong activity comprising more than 70% of the cells) | 0 | 0 | 2 (score 2 relating to strong activity comprising more than 70% of the cells) | 0 | 1 (1 relating to weak activity comprising less than 70% of the cells) | 2 (score 2 relating to strong activity comprising more than 70% of the cells) | 0 | 0 | 1 (1 relating to weak activity comprising less than 70% of the cells) | 0 | 0 | Hoechst 33342 nuclear staining score ([1]; PBLs, conc 1 μm): 0; IC50 (HeLa): 100 to 1000 nM |
| 10 to 100 | CCc1ccc(C(=O)Cn2c(-c3nonc3NCCC#N)nc3ccccc32)cc1 [Example 56] | 10 to 100 | 10 to 100 | 0 | 0 | 2 (score 2 relating to strong activity comprising more than 70% of the cells) | 0 | 1 (1 relating to weak activity comprising less than 70% of the cells) | 2 (score 2 relating to strong activity comprising more than 70% of the cells) | 0 | 2 (score 2 relating to strong activity comprising more than 70% of the cells) | 2 (score 2 relating to strong activity comprising more than 70% of the cells) | 0 | 2 (score 2 relating to strong activity comprising more than 70% of the cells) | 2 (score 2 relating to strong activity comprising more than 70% of the cells) | 0 | 1 (1 relating to weak activity comprising less than 70% of the cells) | 1 (1 relating to weak activity comprising less than 70% of the cells) | 0 | 0 | Hoechst 33342 nuclear staining score ([1]; PBLs, conc 1 μm): 0; IC50 (HeLa): 10 to 100 nM |
| 100 to 1000 | CCc1ccc(C(=O)Cn2c(-c3nonc3N)nc3ccccc32)cc1 [Example 55] | 100 to 1000 | 10 to 100 | 0 | 0 | 2 (score 2 relating to strong activity comprising more than 70% of the cells) | 0 | 0 | 2 (score 2 relating to strong activity comprising more than 70% of the cells) | 0 | 0 | 2 (score 2 relating to strong activity comprising more than 70% of the cells) | 0 | 1 (1 relating to weak activity comprising less than 70% of the cells) | 2 (score 2 relating to strong activity comprising more than 70% of the cells) | 0 | 0 | 0 | 0 | 0 | Hoechst 33342 nuclear staining score ([1]; PBLs, conc 1 μm): 0; IC50 (HeLa): 100 to 1000 nM |
